Measurements published in patent publication US10870647B2, “Imidazopyridine derivative, method for preparing same, and pharmaceutical composition containing same as active ingredient for preventing or treating cancer” (DAEGU-GYEONGBUK MEDICAL INNOVATION FOUNDATION, priority 2016, dated 2020).

Assays:
Assay in all cases: Kinase selectivity, scanMAX Kinase assay panel (DiscoverX), % control at 1 uM
Assay type in all cases: binding
[1] = target: T1, scanMAX Kinase assay panel (Homo sapiens, UniProt O75460); conditions: ERN1; 1 uM; read-out: Percent Control (%)
T1 construct: purchased DiscoverX
T1 sequence (O75460 19-977): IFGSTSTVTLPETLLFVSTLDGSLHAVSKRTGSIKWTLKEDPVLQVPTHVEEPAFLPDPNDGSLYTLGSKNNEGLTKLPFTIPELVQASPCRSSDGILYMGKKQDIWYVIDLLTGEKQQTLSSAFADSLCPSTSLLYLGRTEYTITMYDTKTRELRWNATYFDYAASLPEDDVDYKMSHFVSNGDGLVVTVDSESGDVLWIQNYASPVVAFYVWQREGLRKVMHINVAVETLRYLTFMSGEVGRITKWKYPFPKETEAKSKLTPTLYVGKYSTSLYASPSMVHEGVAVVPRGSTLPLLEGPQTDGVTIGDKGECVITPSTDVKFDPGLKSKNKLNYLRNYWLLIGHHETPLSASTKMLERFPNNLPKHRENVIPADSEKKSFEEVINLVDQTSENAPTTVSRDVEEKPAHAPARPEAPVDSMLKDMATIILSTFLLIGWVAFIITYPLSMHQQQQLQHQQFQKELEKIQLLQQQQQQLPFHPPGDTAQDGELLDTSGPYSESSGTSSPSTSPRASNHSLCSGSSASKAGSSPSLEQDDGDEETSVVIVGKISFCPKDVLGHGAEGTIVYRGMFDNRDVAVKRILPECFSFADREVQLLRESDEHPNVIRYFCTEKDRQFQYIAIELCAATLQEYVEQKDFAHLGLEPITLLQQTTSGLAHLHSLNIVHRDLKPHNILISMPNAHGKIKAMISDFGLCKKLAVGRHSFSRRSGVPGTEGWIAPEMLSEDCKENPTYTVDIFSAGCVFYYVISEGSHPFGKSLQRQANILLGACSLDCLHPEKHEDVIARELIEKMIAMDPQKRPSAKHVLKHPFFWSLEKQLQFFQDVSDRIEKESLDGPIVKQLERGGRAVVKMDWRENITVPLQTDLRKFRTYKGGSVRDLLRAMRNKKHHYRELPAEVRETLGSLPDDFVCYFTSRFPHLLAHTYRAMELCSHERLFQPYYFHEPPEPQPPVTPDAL
Method in brief: (§1)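 Read-out is percent of control, derived from the signal with compound relative to positive and negative controls: (compound − positive)/(negative − positive) × 100. Each enzyme received test drug at 1 uM in DMSO, and values under 35% count as active.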

[2] = target: T2, scanMAX Kinase assay panel (Homo sapiens, UniProt Q8TD19); conditions: NEK9; 1 uM; read-out: Percent Control (%)
T2 construct: purchased DiscoverX
T2 sequence (Q8TD19 1-979): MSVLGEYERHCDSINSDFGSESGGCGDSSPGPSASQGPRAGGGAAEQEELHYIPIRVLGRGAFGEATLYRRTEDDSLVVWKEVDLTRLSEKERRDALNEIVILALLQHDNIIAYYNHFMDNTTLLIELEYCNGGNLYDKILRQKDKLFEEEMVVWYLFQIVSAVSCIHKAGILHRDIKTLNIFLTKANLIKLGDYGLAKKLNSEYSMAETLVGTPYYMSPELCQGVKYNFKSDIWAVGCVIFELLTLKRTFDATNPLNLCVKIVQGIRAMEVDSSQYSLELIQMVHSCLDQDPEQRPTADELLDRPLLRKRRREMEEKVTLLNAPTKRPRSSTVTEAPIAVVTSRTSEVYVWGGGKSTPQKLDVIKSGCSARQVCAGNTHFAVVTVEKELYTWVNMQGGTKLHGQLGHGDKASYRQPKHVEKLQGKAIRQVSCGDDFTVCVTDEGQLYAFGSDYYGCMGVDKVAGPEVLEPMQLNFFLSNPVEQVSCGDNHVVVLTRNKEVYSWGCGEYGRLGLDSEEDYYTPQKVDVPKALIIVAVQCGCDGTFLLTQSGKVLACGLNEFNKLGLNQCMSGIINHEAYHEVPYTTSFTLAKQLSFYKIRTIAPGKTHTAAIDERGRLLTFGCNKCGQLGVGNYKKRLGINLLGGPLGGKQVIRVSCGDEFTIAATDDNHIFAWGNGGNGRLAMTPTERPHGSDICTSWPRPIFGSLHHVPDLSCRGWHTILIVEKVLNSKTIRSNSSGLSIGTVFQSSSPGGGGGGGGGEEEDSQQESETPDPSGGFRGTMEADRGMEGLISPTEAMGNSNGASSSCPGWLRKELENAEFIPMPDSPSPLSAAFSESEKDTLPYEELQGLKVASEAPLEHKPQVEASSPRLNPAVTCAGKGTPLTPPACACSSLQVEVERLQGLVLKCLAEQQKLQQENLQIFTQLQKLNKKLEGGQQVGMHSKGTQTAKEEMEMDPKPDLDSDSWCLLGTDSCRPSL
Method in brief: as §1

[3] = target: T3, scanMAX Kinase assay panel (Homo sapiens, UniProt P45985); conditions: MEK4; 1 uM; read-out: Percent Control (%)
T3 construct: purchased DiscoverX
T3 sequence (P45985 1-399): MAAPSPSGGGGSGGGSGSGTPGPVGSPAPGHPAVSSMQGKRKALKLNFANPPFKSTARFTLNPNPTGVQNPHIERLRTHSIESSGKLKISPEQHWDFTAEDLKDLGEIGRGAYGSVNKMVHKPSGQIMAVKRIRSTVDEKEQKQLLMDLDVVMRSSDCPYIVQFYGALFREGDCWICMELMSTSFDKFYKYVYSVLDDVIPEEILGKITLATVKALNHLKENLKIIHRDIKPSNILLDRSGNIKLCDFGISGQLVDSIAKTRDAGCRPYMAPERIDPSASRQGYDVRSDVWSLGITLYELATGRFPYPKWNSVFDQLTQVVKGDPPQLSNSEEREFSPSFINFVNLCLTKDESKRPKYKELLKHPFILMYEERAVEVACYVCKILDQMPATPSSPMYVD
Method in brief: as §1

[4] = target: T4, scanMAX Kinase assay panel (Homo sapiens, UniProt P09619); conditions: PDGFRB; 1 uM; read-out: Percent Control (%)
T4 construct: purchased DiscoverX
T4 sequence (P09619 33-1106): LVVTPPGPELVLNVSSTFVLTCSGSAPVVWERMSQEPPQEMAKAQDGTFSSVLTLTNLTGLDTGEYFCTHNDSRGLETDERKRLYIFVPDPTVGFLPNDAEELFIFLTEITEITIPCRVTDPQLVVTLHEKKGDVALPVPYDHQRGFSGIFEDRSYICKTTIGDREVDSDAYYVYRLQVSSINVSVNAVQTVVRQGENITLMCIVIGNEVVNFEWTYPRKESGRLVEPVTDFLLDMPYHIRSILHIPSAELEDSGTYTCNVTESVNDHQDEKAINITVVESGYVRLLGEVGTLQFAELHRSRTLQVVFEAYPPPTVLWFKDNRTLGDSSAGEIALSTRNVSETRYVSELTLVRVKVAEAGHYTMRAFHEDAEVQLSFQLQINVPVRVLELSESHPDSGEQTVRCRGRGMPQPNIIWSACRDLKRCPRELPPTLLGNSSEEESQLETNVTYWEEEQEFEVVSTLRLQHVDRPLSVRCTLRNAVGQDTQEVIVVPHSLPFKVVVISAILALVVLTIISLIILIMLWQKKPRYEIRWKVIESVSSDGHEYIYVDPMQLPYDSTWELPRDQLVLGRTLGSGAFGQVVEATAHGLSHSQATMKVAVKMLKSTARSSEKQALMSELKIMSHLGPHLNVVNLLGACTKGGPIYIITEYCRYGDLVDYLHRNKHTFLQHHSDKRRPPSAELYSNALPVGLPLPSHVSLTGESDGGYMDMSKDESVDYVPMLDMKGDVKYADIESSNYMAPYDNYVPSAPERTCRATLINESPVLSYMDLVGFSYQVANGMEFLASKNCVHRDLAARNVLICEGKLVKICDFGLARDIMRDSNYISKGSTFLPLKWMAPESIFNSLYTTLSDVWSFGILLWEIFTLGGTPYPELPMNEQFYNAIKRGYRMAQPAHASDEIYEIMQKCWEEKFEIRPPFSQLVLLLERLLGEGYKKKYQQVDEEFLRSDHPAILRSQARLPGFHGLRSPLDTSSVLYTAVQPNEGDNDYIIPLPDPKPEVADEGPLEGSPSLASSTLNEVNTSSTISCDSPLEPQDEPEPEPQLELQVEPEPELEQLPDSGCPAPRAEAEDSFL
Method in brief: as §1

[5] = target: T5, scanMAX Kinase assay panel (Homo sapiens, UniProt P10721, A829P); conditions: KIT (A829P); 1 uM; read-out: Percent Control (%)
T5 construct: purchased DiscoverX
T5 sequence (P10721 26-976 A829P): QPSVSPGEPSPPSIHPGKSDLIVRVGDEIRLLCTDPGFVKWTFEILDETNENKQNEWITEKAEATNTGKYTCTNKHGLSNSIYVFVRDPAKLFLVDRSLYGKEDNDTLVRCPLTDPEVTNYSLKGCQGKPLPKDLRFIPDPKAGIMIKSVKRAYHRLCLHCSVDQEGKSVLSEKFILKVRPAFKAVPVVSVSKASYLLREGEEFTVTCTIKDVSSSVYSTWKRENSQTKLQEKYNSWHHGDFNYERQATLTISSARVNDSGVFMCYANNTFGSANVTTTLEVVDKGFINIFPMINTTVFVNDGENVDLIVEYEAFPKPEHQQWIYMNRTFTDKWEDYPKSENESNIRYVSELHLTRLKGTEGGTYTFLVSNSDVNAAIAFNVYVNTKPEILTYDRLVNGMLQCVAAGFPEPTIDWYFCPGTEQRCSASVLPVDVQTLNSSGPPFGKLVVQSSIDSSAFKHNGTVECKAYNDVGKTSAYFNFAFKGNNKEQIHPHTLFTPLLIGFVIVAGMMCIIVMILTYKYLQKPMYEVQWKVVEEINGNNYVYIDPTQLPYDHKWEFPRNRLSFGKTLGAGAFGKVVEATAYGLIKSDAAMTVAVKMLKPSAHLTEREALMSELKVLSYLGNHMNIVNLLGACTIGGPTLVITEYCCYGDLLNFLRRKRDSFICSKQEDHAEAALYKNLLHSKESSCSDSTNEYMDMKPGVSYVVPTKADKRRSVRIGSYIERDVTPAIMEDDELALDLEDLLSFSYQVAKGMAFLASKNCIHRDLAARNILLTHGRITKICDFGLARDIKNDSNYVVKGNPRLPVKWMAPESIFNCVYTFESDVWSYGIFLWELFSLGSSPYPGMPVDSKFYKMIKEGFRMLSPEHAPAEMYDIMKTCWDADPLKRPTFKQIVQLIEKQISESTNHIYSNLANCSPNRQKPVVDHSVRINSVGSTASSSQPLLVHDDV
Method in brief: as §1

[6] = target: T6, scanMAX Kinase assay panel (Homo sapiens, UniProt P51451); conditions: BLK; 1 uM; read-out: Percent Control (%)
T6 construct: purchased DiscoverX
T6 sequence (P51451 whole entry): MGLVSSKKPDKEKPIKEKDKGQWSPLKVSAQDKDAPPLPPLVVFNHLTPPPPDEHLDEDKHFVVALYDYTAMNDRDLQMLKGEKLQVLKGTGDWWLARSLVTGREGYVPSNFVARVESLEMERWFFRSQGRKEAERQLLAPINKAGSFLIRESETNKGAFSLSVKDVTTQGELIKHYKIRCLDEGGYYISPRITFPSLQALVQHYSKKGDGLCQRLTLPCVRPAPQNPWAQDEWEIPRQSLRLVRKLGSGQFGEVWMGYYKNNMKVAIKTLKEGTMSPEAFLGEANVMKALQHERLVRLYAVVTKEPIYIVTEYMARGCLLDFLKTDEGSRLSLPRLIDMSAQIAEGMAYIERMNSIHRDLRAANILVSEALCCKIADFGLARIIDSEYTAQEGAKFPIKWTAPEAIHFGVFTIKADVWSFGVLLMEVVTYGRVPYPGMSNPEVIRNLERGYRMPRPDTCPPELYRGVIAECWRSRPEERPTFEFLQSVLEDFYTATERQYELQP
Method in brief: as §1

[7] = target: T7, scanMAX Kinase assay panel (Homo sapiens, UniProt P14616); conditions: INSRR; 1 uM; read-out: Percent Control (%)
T7 construct: purchased DiscoverX
T7 sequence (P14616 27-1297): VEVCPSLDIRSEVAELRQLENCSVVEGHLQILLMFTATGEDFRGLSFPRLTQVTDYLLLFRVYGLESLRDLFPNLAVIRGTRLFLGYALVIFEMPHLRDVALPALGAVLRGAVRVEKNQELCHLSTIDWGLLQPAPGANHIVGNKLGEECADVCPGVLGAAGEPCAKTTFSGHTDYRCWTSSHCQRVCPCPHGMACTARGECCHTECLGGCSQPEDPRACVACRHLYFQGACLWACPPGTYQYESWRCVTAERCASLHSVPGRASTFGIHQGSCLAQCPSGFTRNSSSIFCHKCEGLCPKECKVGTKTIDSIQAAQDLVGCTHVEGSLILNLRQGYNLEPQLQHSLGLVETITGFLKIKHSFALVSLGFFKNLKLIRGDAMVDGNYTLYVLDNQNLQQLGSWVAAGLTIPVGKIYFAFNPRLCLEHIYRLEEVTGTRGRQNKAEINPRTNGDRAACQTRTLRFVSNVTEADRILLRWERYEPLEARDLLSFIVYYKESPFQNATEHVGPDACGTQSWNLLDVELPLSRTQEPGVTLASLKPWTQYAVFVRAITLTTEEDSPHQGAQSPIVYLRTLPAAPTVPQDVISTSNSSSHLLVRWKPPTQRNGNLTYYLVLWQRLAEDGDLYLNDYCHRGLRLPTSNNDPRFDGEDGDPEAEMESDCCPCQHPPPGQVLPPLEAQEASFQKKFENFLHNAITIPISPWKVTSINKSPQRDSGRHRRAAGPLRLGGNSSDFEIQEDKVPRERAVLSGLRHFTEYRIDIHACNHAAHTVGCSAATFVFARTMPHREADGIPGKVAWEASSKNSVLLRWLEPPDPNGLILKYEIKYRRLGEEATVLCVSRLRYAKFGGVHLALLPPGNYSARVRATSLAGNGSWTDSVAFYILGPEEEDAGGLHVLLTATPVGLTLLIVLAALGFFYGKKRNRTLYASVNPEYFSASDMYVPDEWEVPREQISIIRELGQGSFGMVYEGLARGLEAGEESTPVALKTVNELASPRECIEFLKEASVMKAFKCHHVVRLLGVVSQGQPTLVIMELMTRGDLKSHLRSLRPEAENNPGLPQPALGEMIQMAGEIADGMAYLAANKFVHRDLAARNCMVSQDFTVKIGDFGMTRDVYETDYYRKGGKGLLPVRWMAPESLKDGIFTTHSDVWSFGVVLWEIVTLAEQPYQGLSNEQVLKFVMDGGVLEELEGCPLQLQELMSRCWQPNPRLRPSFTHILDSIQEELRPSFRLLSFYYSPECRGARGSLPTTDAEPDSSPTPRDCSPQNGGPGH
Method in brief: as §1

[8] = target: T8, scanMAX Kinase assay panel (Homo sapiens, UniProt P52564); conditions: MEK6; 1 uM; read-out: Percent Control (%)
T8 construct: purchased DiscoverX
T8 sequence (P52564 1-334): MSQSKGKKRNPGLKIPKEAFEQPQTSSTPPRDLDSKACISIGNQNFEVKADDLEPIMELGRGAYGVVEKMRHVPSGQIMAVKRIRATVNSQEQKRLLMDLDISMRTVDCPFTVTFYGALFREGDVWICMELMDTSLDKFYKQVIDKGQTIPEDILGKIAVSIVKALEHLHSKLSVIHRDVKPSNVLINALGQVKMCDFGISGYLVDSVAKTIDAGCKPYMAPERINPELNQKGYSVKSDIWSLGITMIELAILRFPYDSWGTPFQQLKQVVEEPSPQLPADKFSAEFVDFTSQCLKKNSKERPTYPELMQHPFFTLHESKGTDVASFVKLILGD
Method in brief: as §1

[9] = target: T9, scanMAX Kinase assay panel (Homo sapiens, UniProt P53778); conditions: p38-gamma; 1 uM; read-out: Percent Control (%)
T9 construct: purchased DiscoverX
T9 sequence (P53778 1-367): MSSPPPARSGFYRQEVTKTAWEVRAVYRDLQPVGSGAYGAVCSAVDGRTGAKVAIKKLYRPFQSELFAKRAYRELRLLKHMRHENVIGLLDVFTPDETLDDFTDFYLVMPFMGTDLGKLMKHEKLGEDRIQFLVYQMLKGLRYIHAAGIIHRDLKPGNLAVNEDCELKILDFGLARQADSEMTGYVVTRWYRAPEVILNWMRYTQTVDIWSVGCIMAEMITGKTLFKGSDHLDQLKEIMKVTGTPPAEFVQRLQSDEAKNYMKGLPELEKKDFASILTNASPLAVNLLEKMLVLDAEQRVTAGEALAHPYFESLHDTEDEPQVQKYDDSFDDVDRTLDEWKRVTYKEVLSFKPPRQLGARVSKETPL
Method in brief: as §1

Compound	remaining binding at 1 µM [1]	remaining binding at 1 µM [2]	remaining binding at 1 µM [3]	remaining binding at 1 µM [4]	remaining binding at 1 µM [5]	remaining binding at 1 µM [6]	remaining binding at 1 µM [7]	remaining binding at 1 µM [8]	remaining binding at 1 µM [9]
Cc1ccc(C(=O)Nc2ccc(CN3CCN(C)CC3)c(C(F)(F)F)c2)cc1C#Cc1cnc2c(Nc3cnn(C)c3)cccn12 [Example 1, 4-methyl-3-((8-((1-methyl-1H-pyrazol-4-yl)amino)imidazo[1,2-a]pyridin-3-yl)ethynyl)-N-(4-((4-methylpiperazin-1-yl)methyl)-3-(trifluoromethyl)phenyl)benzamide]	62%	6%	98%	0%	4%	0%	47%	86%	18%
Cc1cn(-c2cc(NC(=O)c3ccc(C)c(C#Cc4cnc5c(Nc6cnn(C)c6)cccn45)c3)cc(C(F)(F)F)c2)cn1 [Example 12, 4-methyl-N-(3-(4-methyl-1H-imidazol-1-yl)-5-(trifluoromethyl)phenyl)-3-((8-((1-methyl-1H-pyrazol-4-yl)amino)imidazo[1,2-a]pyridin-3-yl)ethynyl)benzamide]	100%	86%	100%	1%	29%	1%	95%	89%	55%
Cc1ccc(NC(=O)C2(C(=O)Nc3ccc(F)cc3)CC2)cc1C#Cc1cnc2c(Nc3cnn(C(C)C)c3)cccn12 [Example 78]	97%	100%	97%	0%	21%	35%	93%	100%	100%
